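Tested at 5 concentrations; 48 h exposure; 96-well plates; endpoints linearly interpolated, else capped at highest concentration. The concentration for 50% growth inhibition is given as GI50. The concentration for full growth arrest is given as TGI.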
Legend:
Experiment in all cases: DTP human tumour cell line panel, 48 h
[1] = test system: 786-0 renal
[2] = test system: A498 renal
[3] = test system: A549 NSCLC
[4] = test system: ACHN renal
[5] = test system: BT-549 breast
[6] = test system: CAKI-1 renal
[7] = test system: CCRF-CEM leukemia
[8] = test system: COLO 205 colon
[9] = test system: DU-145 prostate
[10] = test system: EKVX NSCLC
[11] = test system: HCC-2998 colon
[12] = test system: HCT-116 colon
[13] = test system: HCT-15 colon
[14] = test system: HL-60(TB) leukemia
[15] = test system: HOP-62 NSCLC
[16] = test system: HOP-92 NSCLC
[17] = test system: HS 578T breast
[18] = test system: HT29 colon
[19] = test system: IGROV1 ovarian
[20] = test system: K-562 leukemia
[21] = test system: KM12 colon
[22] = test system: LOX IMVI melanoma
[23] = test system: M14 melanoma
[24] = test system: MALME-3M melanoma
[25] = test system: MCF7 breast
[26] = test system: MDA-MB-231 breast
[27] = test system: MDA-MB-435
[28] = test system: MDA-MB-468 breast
[29] = test system: MOLT-4 leukemia
[30] = test system: NCI-H226 lung
[31] = test system: NCI-H23 lung
[32] = test system: NCI-H460 lung
[33] = test system: NCI-H522 lung
[34] = test system: NCI/ADR-RES ovarian
[35] = test system: OVCAR-3 ovarian
[36] = test system: OVCAR-4 ovarian
[37] = test system: OVCAR-5 ovarian
[38] = test system: OVCAR-8 ovarian
[39] = test system: PC-3 prostate
[40] = test system: RPMI-8226 leukemia
[41] = test system: RXF 393 renal
[42] = test system: SF-268 CNS
[43] = test system: SF-295 CNS
[44] = test system: SF-539 CNS
[45] = test system: SK-MEL-2 melanoma
[46] = test system: SK-MEL-28 melanoma
[47] = test system: SK-MEL-5 melanoma
[48] = test system: SK-OV-3 ovarian
[49] = test system: SN12C renal
[50] = test system: SNB-19 CNS
[51] = test system: SNB-75 CNS
[52] = test system: SW-620 colon
[53] = test system: T-47D breast
[54] = test system: TK-10 renal
[55] = test system: U251 CNS
[56] = test system: UACC-257 melanoma
[57] = test system: UACC-62 melanoma
[58] = test system: UO-31 renal

## CN(C)CCCNC(=O)c1cc(NC(=O)c2cc(NC(=O)c3ccc(C#Cc4ccccc4)cc3)cn2C)cn1C
[1]
  GI50: 2.65 µM
  TGI: 4.9 µM
[2]
  GI50: 3 µM
  TGI: 8.96 µM
[3]
  GI50: 2.56 µM
  TGI: 5.38 µM
[4]
  GI50: 2.74 µM
  TGI: 6 µM
[5]
  GI50: 1.79 µM
  TGI: 3.94 µM
[6]
  GI50: 2.85 µM
  TGI: 7.97 µM
[7]
  GI50: 1.66 µM
  TGI: 6.46 µM
[8]
  GI50: 3.17 µM
  TGI: 5.82 µM
[9]
  GI50: 2.55 µM
  TGI: 5.18 µM
[10]
  GI50: 2.49 µM
  TGI: 5.18 µM
[11]
  GI50: 2.34 µM
  TGI: 4.42 µM
[12]
  GI50: 2.1 µM
  TGI: 4.46 µM
[13]
  GI50: 2.23 µM
  TGI: 4.48 µM
[14]
  GI50: 2.62 µM
  TGI: 7.14 µM
[15]
  GI50: 2.85 µM
  TGI: 5.42 µM
[16]
  GI50: 0.611 µM
  TGI: 3.47 µM
[17]
  GI50: 3.7 µM
  TGI: 10 µM
[18]
  GI50: 2.56 µM
  TGI: 6.64 µM
[19]
  GI50: 4.95 µM
  TGI: > 15.3 µM
[20]
  GI50: 2.74 µM
  TGI: 7.99 µM
[21]
  GI50: 2.93 µM
  TGI: 6.81 µM
[22]
  GI50: 2.24 µM
  TGI: 4.31 µM
[23]
  GI50: 2.26 µM
  TGI: 4.54 µM
[24]
  GI50: 2.11 µM
  TGI: 4.22 µM
[25]
  GI50: 0.58 µM
  TGI: 2.38 µM
[26]
  GI50: 2.84 µM
  TGI: 5.03 µM
[27]
  GI50: 2.21 µM
  TGI: 4.39 µM
[28]
  GI50: 2.34 µM
  TGI: 4.43 µM
[29]
  GI50: 2.4 µM
  TGI: 7.24 µM
[30]
  GI50: 2.28 µM
  TGI: 4.79 µM
[31]
  GI50: 2.76 µM
  TGI: 5.37 µM
[32]
  GI50: 2.76 µM
  TGI: 6.04 µM
[33]
  GI50: 2.56 µM
  TGI: 5.16 µM
[34]
  GI50: 2.85 µM
  TGI: 7.02 µM
[35]
  GI50: 1.83 µM
  TGI: 4.13 µM
[36]
  GI50: 4.21 µM
  TGI: > 15.3 µM
[37]
  GI50: 3.17 µM
  TGI: 7.43 µM
[38]
  GI50: 2.57 µM
  TGI: 6.63 µM
[39]
  GI50: 2.4 µM
  TGI: 5.38 µM
[40]
  GI50: 1.76 µM
  TGI: 5.89 µM
[41]
  GI50: 1.61 µM
  TGI: 3.84 µM
[42]
  GI50: 2.56 µM
  TGI: 5.65 µM
[43]
  GI50: 2.53 µM
  TGI: 4.97 µM
[44]
  GI50: 2.48 µM
  TGI: 4.7 µM
[45]
  GI50: 2.91 µM
  TGI: 5.98 µM
[46]
  GI50: 2.4 µM
  TGI: 4.47 µM
[47]
  GI50: 2.34 µM
  TGI: 4.37 µM
[48]
  GI50: 5.58 µM
  TGI: > 15.3 µM
[49]
  GI50: 2.03 µM
  TGI: 4.09 µM
[50]
  GI50: 2.84 µM
  TGI: 5.01 µM
[51]
  GI50: 2.48 µM
  TGI: > 15.3 µM
[52]
  GI50: 2.87 µM
  TGI: 6.02 µM
[53]
  GI50: 2.07 µM
  TGI: 4.94 µM
[54]
  GI50: 3.33 µM
  TGI: 9.03 µM
[55]
  GI50: 2.45 µM
  TGI: 5.93 µM
[56]
  GI50: 2.12 µM
  TGI: 4.77 µM
[57]
  GI50: 1.93 µM
  TGI: 4.07 µM
[58]
  GI50: 3.08 µM
  TGI: 12.2 µM

Reference: PubChem BioAssay (NCI)
